Source: ChEMBL document CHEMBL6078653, “In Vitro Biological Target Screening and Colloidal Aggregation of Minor Cannabinoids” (J Nat Prod, 2024)

What was measured:
[1] = biological target: Sodium-dependent noradrenaline transporter (Homo sapiens, UniProt P23975); assay: Displacement of [125]RTI-55 from human recombinant NET receptor expressed in MDCK cells incubated for 3 hrs by radioligand binding assay; type: toxicity, cell-based
[2] = species on record: Homo sapiens; assay: Inhibition of human MDH at 100 to 200 uM incubated for 5 mins in presence of NADH by absorbance based analysis relative to control; settings: dose 100-200 µM
[3] = Inhibition of human MDH incubated for 5 mins in presence of NADH by absorbance based analysis
[4] = Aggregation property of compound in DMEM assessed as critical aggregation concentration by DLS assay; type: physicochemical
[5] = species on record: Homo sapiens; assay: Inhibition of human MDH at 100 to 200 uM incubated for 5 mins in presence of NADH and triton X-100 by absorbance based analysis relative to control; settings: dose 100-200 µM
[6] = biological target: Mu-type opioid receptor (Homo sapiens, UniProt P35372); assay: Displacement of [3H]-Diprenorphine from human recombinant MOP receptor expressed in CHO-K1 cells incubated for 60 mins by radioligand binding assay; type: toxicity, cell-based
[7] = Aggregation property of compound in PB buffer at pH 7 assessed as critical aggregation concentration by DLS assay; type: physicochemical
[8] = biological target: Histamine H1 receptor (Homo sapiens, UniProt P35367); assay: Displacement of [3H]-Pyrilamine from human recombinant H1 receptor expressed in CHO-K1 cells incubated for 3 hrs by radioligand binding assay; type: toxicity, cell-based
[9] = biological target: Sodium-dependent serotonin transporter (Homo sapiens, UniProt P31645); assay: Displacement of [3H]-Paroxetine from human […] cells incubated for 60 mins by radioligand binding assay; type: toxicity, cell-based
[10] = Aggregation property of compound in Tris HCL buffer at pH 7.4 assessed as critical aggregation concentration by DLS assay; type: physicochemical
[11] = biological target: Sodium-dependent dopamine transporter (Homo sapiens, UniProt Q01959); assay: Displacement of [125]RTI-55 from human recombinant DAT receptor expressed in CHO-S cells incubated for 3 hrs by radioligand binding assay; type: cell-based
[12] = Aggregation property of compound in PBS buffer at pH 7.4 assessed as critical aggregation concentration by DLS assay; type: physicochemical
[13] = biological target: 5-hydroxytryptamine receptor 2A (Homo sapiens, UniProt P28223); assay: Displacement of [3H]ketanserin from human recombinant 5-HT2A receptor expressed in CHO-K1 cells incubated for 60 mins by radioligand binding assay; type: toxicity, cell-based
[14] = biological target: Voltage-gated inwardly rectifying potassium channel KCNH2 (Homo sapiens, UniProt Q12809); assay: Displacement of [3H]-Dofetilide from recombinant hERG expressed in HEK293 cells incubated for 60 mins by radioligand binding assay; type: toxicity, cell-based
Voltage-gated inwardly rectifying potassium channel KCNH2, sequence (Q12809 whole entry): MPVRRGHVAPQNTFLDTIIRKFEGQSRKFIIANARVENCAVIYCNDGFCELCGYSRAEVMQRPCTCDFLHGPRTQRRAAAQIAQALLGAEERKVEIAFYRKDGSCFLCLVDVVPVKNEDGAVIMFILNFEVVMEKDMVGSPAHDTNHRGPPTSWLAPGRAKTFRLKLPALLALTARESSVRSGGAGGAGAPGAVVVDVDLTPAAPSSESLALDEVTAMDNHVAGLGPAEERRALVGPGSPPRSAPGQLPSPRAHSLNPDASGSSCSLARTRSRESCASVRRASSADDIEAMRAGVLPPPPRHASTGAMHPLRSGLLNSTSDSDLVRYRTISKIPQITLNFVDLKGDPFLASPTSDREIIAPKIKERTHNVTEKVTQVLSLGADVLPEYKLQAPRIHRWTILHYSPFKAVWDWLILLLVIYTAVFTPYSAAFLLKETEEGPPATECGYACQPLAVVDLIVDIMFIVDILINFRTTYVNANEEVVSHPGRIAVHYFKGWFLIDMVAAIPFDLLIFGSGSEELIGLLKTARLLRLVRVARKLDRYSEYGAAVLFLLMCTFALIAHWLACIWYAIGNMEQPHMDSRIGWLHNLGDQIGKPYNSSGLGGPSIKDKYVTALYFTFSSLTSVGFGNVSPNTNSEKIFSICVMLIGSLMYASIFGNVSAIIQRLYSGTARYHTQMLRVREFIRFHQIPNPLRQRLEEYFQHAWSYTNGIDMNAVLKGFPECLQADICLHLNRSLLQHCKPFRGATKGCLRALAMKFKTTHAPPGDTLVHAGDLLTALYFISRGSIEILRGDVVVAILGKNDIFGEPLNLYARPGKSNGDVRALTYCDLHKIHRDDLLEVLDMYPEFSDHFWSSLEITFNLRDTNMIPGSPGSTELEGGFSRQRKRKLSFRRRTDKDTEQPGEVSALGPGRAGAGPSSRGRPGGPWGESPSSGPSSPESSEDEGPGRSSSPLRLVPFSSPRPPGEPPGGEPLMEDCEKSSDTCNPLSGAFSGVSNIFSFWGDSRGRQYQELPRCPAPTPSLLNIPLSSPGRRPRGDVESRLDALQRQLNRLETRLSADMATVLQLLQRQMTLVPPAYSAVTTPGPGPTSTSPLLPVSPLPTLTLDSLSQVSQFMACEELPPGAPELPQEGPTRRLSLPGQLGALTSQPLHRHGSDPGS

Mu-type opioid receptor, sequence (P35372 whole entry): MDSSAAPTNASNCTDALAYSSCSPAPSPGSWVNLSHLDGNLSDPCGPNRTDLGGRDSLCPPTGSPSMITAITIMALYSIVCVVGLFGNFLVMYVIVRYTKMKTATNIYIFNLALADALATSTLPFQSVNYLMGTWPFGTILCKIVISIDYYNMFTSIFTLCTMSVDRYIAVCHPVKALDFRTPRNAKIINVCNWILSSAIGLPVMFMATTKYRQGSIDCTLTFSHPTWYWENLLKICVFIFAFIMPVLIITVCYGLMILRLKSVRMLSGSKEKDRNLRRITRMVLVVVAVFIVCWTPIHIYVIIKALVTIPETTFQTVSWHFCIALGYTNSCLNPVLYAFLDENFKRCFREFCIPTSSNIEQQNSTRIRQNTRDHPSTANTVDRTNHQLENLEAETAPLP
Sodium-dependent serotonin transporter, sequence (P31645 whole entry): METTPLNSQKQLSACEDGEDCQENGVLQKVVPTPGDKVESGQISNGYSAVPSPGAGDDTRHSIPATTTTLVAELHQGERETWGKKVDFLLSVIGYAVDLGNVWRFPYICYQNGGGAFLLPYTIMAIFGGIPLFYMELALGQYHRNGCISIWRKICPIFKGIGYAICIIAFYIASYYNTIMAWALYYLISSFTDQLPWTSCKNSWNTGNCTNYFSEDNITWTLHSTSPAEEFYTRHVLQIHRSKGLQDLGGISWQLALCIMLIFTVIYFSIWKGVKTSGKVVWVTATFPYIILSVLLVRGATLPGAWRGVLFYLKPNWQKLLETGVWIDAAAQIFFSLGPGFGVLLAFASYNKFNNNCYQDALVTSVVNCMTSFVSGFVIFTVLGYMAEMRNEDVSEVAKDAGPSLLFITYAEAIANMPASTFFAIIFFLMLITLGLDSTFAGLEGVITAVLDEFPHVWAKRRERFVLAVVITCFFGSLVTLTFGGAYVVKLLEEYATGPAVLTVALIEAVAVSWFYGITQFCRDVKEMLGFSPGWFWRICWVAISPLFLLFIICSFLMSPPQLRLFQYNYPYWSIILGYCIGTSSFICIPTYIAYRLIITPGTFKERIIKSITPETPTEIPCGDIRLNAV
Sodium-dependent noradrenaline transporter, sequence (P23975 whole entry): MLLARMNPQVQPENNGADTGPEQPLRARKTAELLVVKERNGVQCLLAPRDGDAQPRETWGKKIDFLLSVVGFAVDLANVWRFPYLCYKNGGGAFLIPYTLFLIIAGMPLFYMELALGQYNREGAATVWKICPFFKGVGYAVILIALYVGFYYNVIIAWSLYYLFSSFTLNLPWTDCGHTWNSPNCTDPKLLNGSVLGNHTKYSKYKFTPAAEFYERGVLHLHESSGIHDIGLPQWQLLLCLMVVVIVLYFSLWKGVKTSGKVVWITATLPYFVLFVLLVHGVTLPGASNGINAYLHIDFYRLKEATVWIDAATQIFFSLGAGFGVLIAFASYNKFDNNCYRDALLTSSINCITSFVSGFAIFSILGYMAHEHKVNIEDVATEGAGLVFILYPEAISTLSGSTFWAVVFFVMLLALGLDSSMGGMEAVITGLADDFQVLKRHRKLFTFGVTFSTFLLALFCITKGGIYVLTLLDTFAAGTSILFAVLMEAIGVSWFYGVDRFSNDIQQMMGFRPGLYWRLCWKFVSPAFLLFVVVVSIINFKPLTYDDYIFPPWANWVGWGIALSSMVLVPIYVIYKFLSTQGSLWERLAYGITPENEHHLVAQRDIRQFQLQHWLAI
Sodium-dependent dopamine transporter, sequence (Q01959 whole entry): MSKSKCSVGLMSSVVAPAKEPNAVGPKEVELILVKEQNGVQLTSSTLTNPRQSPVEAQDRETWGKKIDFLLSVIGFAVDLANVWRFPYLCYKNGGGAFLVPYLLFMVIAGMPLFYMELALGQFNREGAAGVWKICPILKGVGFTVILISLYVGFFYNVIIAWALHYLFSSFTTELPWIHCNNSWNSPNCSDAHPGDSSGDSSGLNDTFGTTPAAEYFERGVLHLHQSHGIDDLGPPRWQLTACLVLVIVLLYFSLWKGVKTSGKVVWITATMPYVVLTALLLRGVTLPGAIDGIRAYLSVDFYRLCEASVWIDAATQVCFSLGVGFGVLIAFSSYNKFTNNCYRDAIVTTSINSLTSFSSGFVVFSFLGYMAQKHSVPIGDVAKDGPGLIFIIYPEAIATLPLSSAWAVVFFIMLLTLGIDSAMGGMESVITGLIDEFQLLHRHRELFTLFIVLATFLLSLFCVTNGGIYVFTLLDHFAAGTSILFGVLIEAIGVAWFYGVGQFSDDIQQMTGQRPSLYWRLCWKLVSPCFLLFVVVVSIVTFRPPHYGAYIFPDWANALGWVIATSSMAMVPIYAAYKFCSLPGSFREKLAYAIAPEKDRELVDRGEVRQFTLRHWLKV
5-hydroxytryptamine receptor 2A, sequence (P28223 whole entry): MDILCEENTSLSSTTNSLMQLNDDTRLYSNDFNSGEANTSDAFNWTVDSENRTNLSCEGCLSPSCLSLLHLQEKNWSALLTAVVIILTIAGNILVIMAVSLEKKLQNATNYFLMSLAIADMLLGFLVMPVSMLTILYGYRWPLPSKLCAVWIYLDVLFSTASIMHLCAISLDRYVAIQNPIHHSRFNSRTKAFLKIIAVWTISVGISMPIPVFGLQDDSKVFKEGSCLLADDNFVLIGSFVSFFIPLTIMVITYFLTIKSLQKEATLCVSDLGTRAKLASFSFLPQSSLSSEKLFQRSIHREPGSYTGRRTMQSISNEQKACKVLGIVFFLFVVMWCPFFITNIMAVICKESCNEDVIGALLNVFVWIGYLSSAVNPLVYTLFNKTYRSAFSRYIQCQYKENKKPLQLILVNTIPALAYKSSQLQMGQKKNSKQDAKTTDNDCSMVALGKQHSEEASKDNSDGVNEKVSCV
Histamine H1 receptor, sequence (P35367 whole entry): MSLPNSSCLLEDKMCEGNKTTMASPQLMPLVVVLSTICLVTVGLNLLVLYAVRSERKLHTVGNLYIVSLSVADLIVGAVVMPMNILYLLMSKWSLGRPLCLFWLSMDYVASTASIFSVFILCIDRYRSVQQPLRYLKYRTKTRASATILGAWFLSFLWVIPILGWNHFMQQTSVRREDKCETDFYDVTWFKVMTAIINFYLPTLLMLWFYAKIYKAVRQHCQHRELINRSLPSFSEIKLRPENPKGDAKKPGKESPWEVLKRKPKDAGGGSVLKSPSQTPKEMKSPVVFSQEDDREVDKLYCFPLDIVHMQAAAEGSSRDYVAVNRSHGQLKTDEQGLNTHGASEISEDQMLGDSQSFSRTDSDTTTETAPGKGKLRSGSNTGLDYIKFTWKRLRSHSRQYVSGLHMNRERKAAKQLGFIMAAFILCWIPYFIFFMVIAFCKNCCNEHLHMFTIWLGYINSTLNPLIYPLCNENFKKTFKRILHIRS

CCCCCc1cc2c(c(O)c1C(=O)O)C=CC(C)(CCC=C(C)C)O2 (stereo unspecified)
IC50 [1]: 3.22 µM
inhibition [2]: 100%
IC50 [3]: 30.2 µM
CAC [4]: 100 µM
inhibition [5]: 100%
IC50 [6]: 10.8 µM
CAC [7]: 100 µM
IC50 [8]: 5.7 µM

CCCCCc1cc(O)c2c(c1)OC(C)(CCC=C(C)C)C=C2 (stereo unspecified) [CANNABICHROMENE]
IC50 [1]: 1.95 µM
IC50 [9]: 6.26 µM
CAC [10]: 0.8 µM
inhibition [2]: 100%
IC50 [3]: 1 µM
CAC [4]: 1.6 µM
inhibition [5]: 100%
IC50 [11]: 0.74 µM
CAC [12]: 0.2 µM
CAC [7]: 5.6 µM

C=C(C)[C@@H]1CCC(C)=C[C@H]1c1c(O)cc(CCCCC)c(C(=O)O)c1O [CANNABIDIOLIC ACID]
inhibition [2]: 100%
IC50 [3]: 46.8 µM
inhibition [5]: 100%
CAC [7]: 60.3 µM

C=C(C)[C@@H]1CCC(C)=C[C@H]1c1c(O)cc(CCC)cc1O [CANNABIDIVARIN]
IC50 [1]: 2.66 µM
CAC [10]: 100 µM
inhibition [2]: 100%
IC50 [3]: 11 µM
CAC [4]: 100 µM
inhibition [5]: 100%
IC50 [11]: 3 µM
IC50 [6]: 6.42 µM
CAC [12]: 31.6 µM
CAC [7]: 31.6 µM

CCCCCc1cc(O)c(C/C=C(\C)CCC=C(C)C)c(O)c1C(=O)O [CANNABIGEROLIC ACID]
inhibition [2]: 100%
IC50 [3]: 28.8 µM
inhibition [5]: 100%
IC50 [11]: 3.88 µM
CAC [7]: 12 µM

CCCCCc1cc(O)c(C/C=C(\C)CCC=C(C)C)c(O)c1 [CANNABIGEROL]
IC50 [1]: 2.45 µM
IC50 [9]: 1.66 µM
CAC [10]: 20.3 µM
inhibition [2]: 100%
IC50 [3]: 8.8 µM
CAC [4]: 16.7 µM
IC50 [13]: 1.88 µM
inhibition [5]: 100%
IC50 [11]: 0.95 µM
IC50 [6]: 1.38 µM
IC50 [14]: 3.06 µM
CAC [12]: 100 µM
CAC [7]: 20.9 µM

CCCCCc1cc(O)c2c(c1)OC(C)(C)c1ccc(C)cc1-2 [CANNABINOL]
IC50 [1]: 1.15 µM
IC50 [9]: 3.35 µM
CAC [10]: 10.4 µM
inhibition [2]: 100%
IC50 [3]: 3.2 µM
CAC [4]: 4.8 µM
IC50 [13]: 4.89 µM
inhibition [5]: 100%
IC50 [6]: 3.21 µM
CAC [12]: 23.1 µM
CAC [7]: 12.9 µM
